In paper PMC8482806, “A Novel Blood-Brain Barrier-Permeable Chemotherapeutic Agent for the Treatment of Glioblastoma” (Cureus, 2021):

What was measured:
[1] = system: U251 cells; assay: Cell viability assay (CellTiter-Glo), U251; type: cell-based; conditions: Homo sapiens, U-251; Cell Line: U251; read-out: LC50 (μM ± SD)
Protocol: In vitro activity of QBS10072S was assessed using a modified clonogenic cell viability assay in 96-well clear-bottom plates. For the LLC-PK1 inducible LAT1-expressing cell line, 1000 cells/well were plated and cells were treated with either butyrate alone (non-induced) or with both butyrate and doxycycline (induced) as described above. For GBM cell lines, 2000 cells/well were plated. On day 2 (GBM) or day 3 (LLC-PK1) after original plating, cells were washed twice with PBS and incubated with 50 μL of various concentrations of QBS10072S in PBS in at least quadruplicate. After 30 minutes at 37°C, 200 μL of growth medium was added to each well. Clonal populations were allowed to grow until the control wells (mock treatment) were near confluence (7 to 10 days). At this point, 170 μL media were removed and 60 μL CellTiter-Glo® (Promega, Madison, WI) were added to each well. Plates were placed on an orbital shaker for three minutes to lyse the cells and then incubated for an additional 10 minutes at RT to stabilize the luminescent signal. Luminescence was recorded using an EnSpire® Multimode Plate Reader (Perkin Elmer). Background (luminescence from wells incubated with 100 μM melphalan or lomustine) was subtracted and data were normalized to the control. EC50s were determined by non-linear regression using GraphPad Prism.

[2] = system: U87 cells; assay: WST1 cell viability assay, U87; type: cell-based; conditions: Homo sapiens, U-87 MG, read-out: LC50 (μM ± SD)
Protocol: (§1) In vitro activities of QBS10072S and temozolomide (TMZ) in U87 and U87-MGMT cells were assessed using the WST1 cell viability assay in 96-well plates in which 500/well of cells were plated in sextuplets for each condition. To avoid cell loss, the following washing and medium removing procedures were all done using a P200 pipet without vacuum aspiration. For QBS10072S treatment, cells were washed with PBS the next day and incubated with 50 μL of various concentrations of QBS10072S in PBS for 1 hour at 37°C. After incubation, 150 μL of growth medium was added to each well. The medium was subsequently changed every two days until day 7. For TMZ treatment, cells were treated with 100 μL of various concentrations of TMZ in a growth medium for 2 days. After incubation, cells were put back in a normal growth medium and continued culturing for five days. In the end, 10 μL of WST1 reagent was added to each well and incubated at 37°C for 4h before subjecting to plate reading at 450 nm and 690nm using an EnSpire multimode plate reader (PerkinElmer). Background (OD690nm) was subtracted and data were normalized to the control. LC50s were determined by non-linear regression using GraphPad Prism (GraphPad Software Inc., San Diego, California)

[3] = system: U87-MGMT cells; assay: WST1 cell viability assay, U87-MGMT; type: cell-based; conditions: Homo sapiens, read-out: LC50 (μM ± SD)
Protocol: as §1

[4] = system: LN229 intracerebral human GBM xenograft; assay: LN229 intracerebral human GBM xenograft in athymic mice (BLI, survival); type: in vivo, mouse; conditions: for median survival time: vehicle 56; for %TGI: day 53, three doses
Protocol: Five-week-old female athymic mice (nu/nu, homozygous: Simonsen Laboratories, Gilroy, CA), housed under aseptic conditions, received intracranial tumor cell injection as previously described and as approved by the University of California San Francisco Institutional Animal Care and Use Committee, Protocol #: AN111064-03. Briefly, mice were anesthetized by intraperitoneal injection of ketamine (100 mg/kg) and xylazine (10 mg/kg) and injected with 3 μL of tumor cell suspension (300,000 cells total) into the right caudate-putamen. Coordinates: 3 mm to the right from bregma, on top of the coronal suture, and 3.5 mm depth. Injection rate: ~30 second/uL. For treatment studies, eight mice were used for each group for LN229 studies and nine mice per group for U251 studies. Treatments began when tumors entered the log-phase of growth as measured by luminescence, for the LN229 experiment on Day 21 and for U251 experiments on Day 14.
Dosing levels and frequency are described in the figure legends.
For bioluminescence imaging (BLI), mice were anesthetized as above, then administered 150 mg/kg of luciferin (D-luciferin potassium salt, Gold Biotechnology, St. Louis, MO) via intraperitoneal injection. Ten minutes after luciferin injection, mice were examined for tumor bioluminescence with an IVIS Lumina imaging station and Living Image software (Caliper Life Sciences, Alameda, CA), and regions of interest were recorded as photons per second per steradian per square cm.

[5] = 2 mg/kg IV once every two weeks
[6] = 4 mg/kg IV once every two weeks
[7] = 8 mg/kg IV once every two weeks

Cc1ccc(N(CCCl)CCCl)cc1C[C@H](N)CC(=O)O [QBS10072S, (+)-(3S)-amino-4-[5-[bis(2-chloroethyl)amino]-2-methyl-phenyl]butanoic acid]
CC50 [1]: 12 ± 2 µM | CC50 [2]: 14.7 ± 5.3 µM | CC50 [3]: 12.8 ± 4.1 µM | median survival time [4, 5]: 66.5 days | median survival time [4, 6]: 71 days | median survival time [4, 7]: 74 days | %TGI [4, 5]: 72% | %TGI [4, 6]: 73% | %TGI [4, 7]: 84%
